From PubChem BioAssay AID248 (DTP/NCI, 2004)
Values joined by “and” are separate entries in the source; they are usually repeats but may differ in a detail not shown here. Equal entries are not always repeated. Inconclusive results and toxic doses are left out. No stated cut-off is given here; in the data, active means T/C of 150% or more; inactive means T/C below 125%.

Tested on: L1210 leukemia ip in BDF1 mice, survival T/C
Assay: NCI In Vivo Anticancer Drug Screen. Data for tumor model L1210 Leukemia (intraperitoneal) in B6D2F1 (BDF1) mice
Conditions: endpoint: mean survival time, higher = longer survival
How it was run: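 Ratio derived from survival: compound-dosed mice over vehicle-dosed mice, all bearing a transplantable tumor.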

[1] = dose: 100.0 mg/kg/injection, schedule: Q04DX003 (ip), vehicle: Klucel (hydroxypropylcellulose) (HPC)
[2] = dose: 200.0 mg/kg/injection, schedule: Q04DX003 (ip), vehicle: Klucel (hydroxypropylcellulose) (HPC)
[3] = dose: 400.0 mg/kg/injection, schedule: Q04DX003 (ip), vehicle: Klucel (hydroxypropylcellulose) (HPC)
[4] = dose: 100.0 mg/kg/injection, schedule: Q04DX003 (ip), vehicle: saline with Tween-80
[5] = dose: 200.0 mg/kg/injection, schedule: Q04DX003 (ip), vehicle: saline with Tween-80
[6] = dose: 100.0 mg/kg/injection, schedule: Q01DX001 (ip), vehicle: saline
[7] = dose: 200.0 mg/kg/injection, schedule: Q01DX001 (ip), vehicle: saline

Measured: T/C

CCOC(CN(Cc1ccc(OC)c(OCc2ccccc2)c1)S(=O)(=O)c1ccc(C)cc1)OCC
inactive: dose: 25.0 mg/kg/injection, schedule: Q01DX009 (ip), vehicle: water 102 % of control | dose: 50.0 mg/kg/injection, schedule: Q01DX009 (ip), vehicle: water 94 % of control | dose: 100.0 mg/kg/injection, schedule: Q01DX009 (ip), vehicle: water 97 % of control | dose: 200.0 mg/kg/injection, schedule: Q01DX009 (ip), vehicle: water 94 % of control | dose: 400.0 mg/kg/injection, schedule: Q01DX009 (ip), vehicle: water 96 % of control

O=C(Nc1ccc(Nc2ccccc2)cc1)Nc1cccc(C(F)(F)F)c1
inactive: dose: 100.0 mg/kg/injection, schedule: Q01DX001 (ip), vehicle: gum acacia 94 % of control and 97 % of control | dose: 100.0 mg/kg/injection, schedule: Q01DX009 (ip), vehicle: gum acacia 94 % of control and 98 % of control | dose: 100.0 mg/kg/injection, schedule: Q04DX002 (ip), vehicle: gum acacia 95 % of control | dose: 100.0 mg/kg/injection, schedule: Q04DX003 (ip), vehicle: gum acacia 100 % of control and 101 % of control | dose: 200.0 mg/kg/injection, schedule: Q01DX001 (ip), vehicle: gum acacia 97 % of control and 90 % of control | dose: 200.0 mg/kg/injection, schedule: Q01DX009 (ip), vehicle: gum acacia 98 % of control and 103 % of control | dose: 200.0 mg/kg/injection, schedule: Q04DX002 (ip), vehicle: gum acacia 93 % of control and 86 % of control | dose: 200.0 mg/kg/injection, schedule: Q04DX003 (ip), vehicle: gum acacia 94 % of control | dose: 400.0 mg/kg/injection, schedule: Q01DX001 (ip), vehicle: gum acacia 103 % of control and 87 % of control | dose: 400.0 mg/kg/injection, schedule: Q01DX009 (ip), vehicle: gum acacia 97 % of control and 91 % of control | dose: 400.0 mg/kg/injection, schedule: Q04DX002 (ip), vehicle: gum acacia 100 % of control | dose: 400.0 mg/kg/injection, schedule: Q04DX003 (ip), vehicle: gum acacia 95 % of control and 96 % of control

CC(C)(C)C(O)C1CCC(C(O)C(C)(C)C)S1(=O)=O (configuration not stated)
inactive: dose: 50.0 mg/kg/injection, schedule: Q04DX003 (ip), vehicle: Klucel (hydroxypropylcellulose) (HPC) 100 % of control | [1] 104 % of control | [2] 98 % of control | [3] 100 % of control

CCCCCCCCCCCCCCCCS(=O)(=O)N/N=C/c1ccc2c(c1)OCO2
inactive: dose: 100.0 mg/kg/injection, schedule: Q01DX001 (ip), vehicle: carboxymethylcellulose (CMC) 101 % of control | dose: 200.0 mg/kg/injection, schedule: Q01DX001 (ip), vehicle: carboxymethylcellulose (CMC) 98 % of control | dose: 400.0 mg/kg/injection, schedule: Q01DX001 (ip), vehicle: carboxymethylcellulose (CMC) 104 % of control

O=[As](O)(CC(O)c1ccccc1)c1ccc(Cl)cc1 (configuration not stated)
inactive: dose: 6.25 mg/kg/injection, schedule: Q01DX001 (ip), vehicle: saline with Tween-80 100 % of control | dose: 12.5 mg/kg/injection, schedule: Q01DX001 (ip), vehicle: saline with Tween-80 109 % of control | dose: 25.0 mg/kg/injection, schedule: Q01DX001 (ip), vehicle: saline with Tween-80 105 % of control and 116 % of control

CC1(C)N=C(N)N=C(N)N1c1ccc(CCc2ccc(S(=O)(=O)F)cc2)cc1
inactive: dose: 100.0 mg/kg/injection, schedule: Q01DX001 (ip), vehicle: saline with Tween-80 97 % of control | dose: 200.0 mg/kg/injection, schedule: Q01DX001 (ip), vehicle: saline with Tween-80 97 % of control | dose: 400.0 mg/kg/injection, schedule: Q01DX001 (ip), vehicle: saline with Tween-80 102 % of control

CCCCN(CCO)C(C#CC(C)(C)O)C(C)C (configuration not stated)
inactive: [4] 95 % of control | [5] 101 % of control

C=C(COc1ccc(Cl)cc1)COc1ccc(Cl)cc1
inactive: dose: 12.5 mg/kg/injection, schedule: Q04DX002 (ip), vehicle: other 115 % of control and 117 % of control | dose: 50.0 mg/kg/injection, schedule: Q04DX003 (ip), vehicle: other 98 % of control and 107 % of control | dose: 100.0 mg/kg/injection, schedule: Q01DX001 (ip), vehicle: other 95 % of control and 99 % of control | dose: 100.0 mg/kg/injection, schedule: Q04DX003 (ip), vehicle: other 96 % of control and 113 % of control | dose: 200.0 mg/kg/injection, schedule: Q01DX001 (ip), vehicle: other 96 % of control and 98 % of control | dose: 200.0 mg/kg/injection, schedule: Q04DX003 (ip), vehicle: other 93 % of control and 106 % of control | dose: 400.0 mg/kg/injection, schedule: Q01DX001 (ip), vehicle: other 91 % of control | dose: 400.0 mg/kg/injection, schedule: Q04DX003 (ip), vehicle: other 95 % of control and 113 % of control

CC(C)N=Cc1cc(Cl)ccc1O.CC(C)N=Cc1cc(Cl)ccc1O.[Co]
inactive: dose: 50.0 mg/kg/injection, schedule: Q04DX003 (ip), vehicle: saline 94 % of control | dose: 100.0 mg/kg/injection, schedule: Q04DX003 (ip), vehicle: saline 102 % of control | dose: 200.0 mg/kg/injection, schedule: Q04DX003 (ip), vehicle: saline 105 % of control

CCOc1ccc(/C=N/Nc2ccc([N+](=O)[O-])cc2)cc1OC
inactive: dose: 25.0 mg/kg/injection, schedule: Q01DX009 (ip), vehicle: saline sonified 93 % of control | dose: 37.5 mg/kg/injection, schedule: Q01DX009 (ip), vehicle: saline with Tween-80 91 % of control | dose: 50.0 mg/kg/injection, schedule: Q01DX009 (ip), vehicle: saline sonified 103 % of control | dose: 75.0 mg/kg/injection, schedule: Q01DX009 (ip), vehicle: saline with Tween-80 93 % of control | dose: 100.0 mg/kg/injection, schedule: Q01DX009 (ip), vehicle: saline sonified 98 % of control | [4] 90 % of control | dose: 150.0 mg/kg/injection, schedule: Q01DX009 (ip), vehicle: saline with Tween-80 96 % of control | [5] 97 % of control | dose: 400.0 mg/kg/injection, schedule: Q04DX003 (ip), vehicle: saline sonified 88 % of control | dose: 400.0 mg/kg/injection, schedule: Q04DX003 (ip), vehicle: saline with Tween-80 87 % of control

Cc1ccc([I+]c2ccccc2C(=O)[O-])c(C)c1
inactive: dose: 50.0 mg/kg/injection, schedule: Q01DX001 (ip), vehicle: saline 98 % of control | [6] 102 % of control | [7] 104 % of control

OCC1OC(n2nnc3c(=S)nc[nH]c32)C(O)C1O (configuration not stated)
inactive: dose: 3.3 mg/kg/injection, schedule: Q01DX009 (ip), vehicle: saline 101 % of control | dose: 5.0 mg/kg/injection, schedule: Q01DX009 (ip), vehicle: saline 95 % of control | dose: 7.5 mg/kg/injection, schedule: Q01DX009 (ip), vehicle: saline 94 % of control | dose: 11.25 mg/kg/injection, schedule: Q01DX009 (ip), vehicle: saline 101 % of control | dose: 15.0 mg/kg/injection, schedule: Q01DX001 (ip), vehicle: saline 96 % of control | dose: 18.0 mg/kg/injection, schedule: Q01DX009 (ip), vehicle: saline 106 % of control | dose: 25.0 mg/kg/injection, schedule: Q01DX001 (ip), vehicle: saline 98 % of control and 100 % of control | dose: 27.0 mg/kg/injection, schedule: Q01DX009 (ip), vehicle: saline 101 % of control | dose: 38.0 mg/kg/injection, schedule: Q01DX001 (ip), vehicle: saline 94 % of control | dose: 75.0 mg/kg/injection, schedule: Q01DX001 (ip), vehicle: saline 102 % of control | [6] 94 % of control and 98 % of control and 106 % of control | [7] 110 % of control

CCc1[nH]c(=S)nc(-c2ccccc2)c1-c1ccc([N+](=O)[O-])cc1O
inactive: [1] 95 % of control | [2] 100 % of control | [3] 95 % of control

C[P+]1(CCc2ccc(Cl)cc2)CC(Br)C(Br)C1 (configuration not stated)
inactive: dose: 100.0 mg/kg/injection, schedule: Q01DX001 (ip), vehicle: Klucel (hydroxypropylcellulose) (HPC) 104 % of control
